Data from the CheMixHub ionic liquid set.
± gives the uncertainty stated by the source.

Assay: xn = mol fraction of the nth substance listed

Work on `CCCCCCCC/C=C\CCCCCCCC(=O)O` + CC[N+](CC)(CC)CC.[Cl-] yielded a viscosity (293.1 K, 100 kPa, x2 = 0.25) of 268.5 ± 8.8 mPa·s, a viscosity (313.2 K, 100 kPa, x2 = 0.25) of 95.4 ± 1.7 mPa·s and a viscosity (323.2 K, 100 kPa, x2 = 0.25) of 61.9 ± 0.9 mPa·s.

Compound `CC#N` + CC[NH3+].O=[N+]([O-])[O-] has a viscosity (308.19 K, 100 kPa, x2 = 0) of 0.302 ± 0.019 mPa·s.

For `CC[NH2+]CC.O=[N+]([O-])[O-]` + CC[NH3+].O=[N+]([O-])[O-], the electrical conductivity (293.15 K, 101 kPa, frequency 0.00293 MHz, x1 = 0.0998) was 1.73 S/m, the electrical conductivity (293.15 K, 101 kPa, frequency 0.00293 MHz, x1 = 0.3501) was 1.46 S/m and the viscosity (293.15 K, 101 kPa, x1 = 0.0998) was 43.2 mPa·s. For the same compound, the viscosity (298.15 K, 101 kPa, x1 = 0.2501) was 38.3 mPa·s, the electrical conductivity (308.15 K, 101 kPa, frequency 0.00293 MHz, x1 = 0.0499) was 2.78 S/m and the viscosity (308.15 K, 101 kPa, x1 = 0.0499) was 27 mPa·s. The electrical conductivity (313.15 K, 101 kPa, frequency 0.00293 MHz, x1 = 0.1999) was 2.79 S/m, the electrical conductivity (313.15 K, 101 kPa, frequency 0.00293 MHz, x1 = 0.3501) was 2.63 S/m and the viscosity (313.15 K, 101 kPa, x1 = 0.1999) was 25.1 mPa·s. It also gave a viscosity (313.15 K, 101 kPa, x1 = 0.3501) of 24.9 mPa·s, an electrical conductivity (318.15 K, 101 kPa, frequency 0.00293 MHz, x1 = 0.0998) of 3.44 S/m and an electrical conductivity (318.15 K, 101 kPa, frequency 0.00293 MHz, x1 = 0.1499) of 3.39 S/m. It also gave a viscosity (318.15 K, 101 kPa, x1 = 0.0998) of 19.7 mPa·s, a viscosity (318.15 K, 101 kPa, x1 = 0.2998) of 20.3 mPa·s and an electrical conductivity (323.15 K, 101 kPa, frequency 0.00293 MHz, x1 = 0.1499) of 3.79 S/m. The electrical conductivity (323.15 K, 101 kPa, frequency 0.00293 MHz, x1 = 0.1999) was 3.53 S/m, the viscosity (323.15 K, 101 kPa, x1 = 0.1499) was 17.9 mPa·s and the viscosity (323.15 K, 101 kPa, x1 = 0.1999) was 19.1 mPa·s. It also gave a viscosity (328.15 K, 101 kPa, x1 = 0.0998) of 15.3 mPa·s, a viscosity (338.15 K, 101 kPa, x1 = 0.2998) of 12.2 mPa·s and a viscosity (353.15 K, 101 kPa, x1 = 0.0998) of 8.96 mPa·s. The viscosity (353.15 K, 101 kPa, x1 = 0.1499) was 8.99 mPa·s, the viscosity (353.15 K, 101 kPa, x1 = 0.1999) was 9.7 mPa·s and the viscosity (353.15 K, 101 kPa, x1 = 0.3501) was 9.47 mPa·s.

Compound `CCCC[n+]1ccccc1.[Cl-]` + CC[n+]1ccccc1.[Br-] has a viscosity (388.1 K, 101 kPa, x2 = 0.484) of 30 ± 1.9 mPa·s, a viscosity (388.1 K, 101 kPa, x2 = 0.694) of 23.1 ± 1.3 mPa·s and a viscosity (393.1 K, 101 kPa, x2 = 0.64) of 21.6 ± 1.2 mPa·s. It also gave a viscosity (393.1 K, 101 kPa, x2 = 0.797) of 18.11 ± 0.92 mPa·s, a viscosity (403.1 K, 101 kPa, x2 = 0.408) of 21.2 ± 1.3 mPa·s and a viscosity (403.1 K, 101 kPa, x2 = 0.604) of 17.39 ± 0.95 mPa·s. The viscosity (408.1 K, 101 kPa, x2 = 0.64) was 14.86 ± 0.78 mPa·s, the viscosity (408.1 K, 101 kPa, x2 = 0.797) was 12.97 ± 0.62 mPa·s and the viscosity (413.1 K, 101 kPa, x2 = 0.193) was 19.5 ± 1.2 mPa·s. The viscosity (413.1 K, 101 kPa, x2 = 0.64) was 13.22 ± 0.67 mPa·s, the viscosity (413.1 K, 101 kPa, x2 = 0.694) was 12.73 ± 0.62 mPa·s and the viscosity (413.1 K, 101 kPa, x2 = 0.797) was 11.67 ± 0.55 mPa·s. The viscosity (418.1 K, 101 kPa, x2 = 0.104) was 18.3 ± 1.1 mPa·s, the viscosity (418.1 K, 101 kPa, x2 = 0.64) was 11.81 ± 0.58 mPa·s and the viscosity (418.1 K, 101 kPa, x2 = 0.694) was 11.42 ± 0.55 mPa·s. The viscosity (423.1 K, 101 kPa, x2 = 0.313) was 13.73 ± 0.72 mPa·s, the viscosity (423.1 K, 101 kPa, x2 = 0.797) was 9.52 ± 0.43 mPa·s and the viscosity (423.1 K, 101 kPa, x2 = 0.894) was 8.8 ± 0.39 mPa·s. The viscosity (428.1 K, 101 kPa, x2 = 0.313) was 12.22 ± 0.61 mPa·s, the viscosity (428.1 K, 101 kPa, x2 = 0.604) was 9.82 ± 0.46 mPa·s and the viscosity (428.1 K, 101 kPa, x2 = 0.694) was 9.28 ± 0.42 mPa·s. The viscosity (433.1 K, 101 kPa, x2 = 0.484) was 9.72 ± 0.45 mPa·s, the viscosity (433.1 K, 101 kPa, x2 = 0.64) was 8.61 ± 0.39 mPa·s and the viscosity (438.1 K, 101 kPa, x2 = 0.604) was 8.04 ± 0.35 mPa·s. It also gave a viscosity (438.1 K, 101 kPa, x2 = 0.894) of 6.68 ± 0.28 mPa·s, a viscosity (443.1 K, 101 kPa, x2 = 0.64) of 7.11 ± 0.3 mPa·s and a viscosity (443.1 K, 101 kPa, x2 = 0.797) of 6.56 ± 0.29 mPa·s.

`CN1CCCC1=O` + CC[n+]1ccn(C)c1.COS(=O)(=O)[O-] gave a viscosity (313.15 K, 101 kPa, x1 = 1) of 1.31 ± 0.29 mPa·s.

`CC#N` + CC[n+]1ccn(C)c1.F[B-](F)(F)F showed a viscosity (303.15 K, 100 kPa, x1 = 1) of 0.354 ± 0.036 mPa·s, a viscosity (303.15 K, 101 kPa, x2 = 0) of 0.326 ± 0.033 mPa·s and a viscosity (313.15 K, 101 kPa, x2 = 0) of 0.297 ± 0.03 mPa·s. The viscosity (323.15 K, 101 kPa, x2 = 0) was 0.272 ± 0.027 mPa·s and the viscosity (333.15 K, 101 kPa, x2 = 0) was 0.249 ± 0.025 mPa·s.

Compound `CC(=O)c1ccccc1` + CC[n+]1ccn(C)c1.F[B-](F)(F)F has a viscosity (293.15 K, 100 kPa, x1 = 0.2999) of 19.7 ± 4 mPa·s, a viscosity (293.15 K, 100 kPa, x1 = 0.4003) of 16 ± 3.2 mPa·s and a viscosity (303.15 K, 100 kPa, x1 = 0.094) of 16.9 ± 3.4 mPa·s. It also gave a viscosity (303.15 K, 100 kPa, x1 = 0.4989) of 8.9 ± 1.8 mPa·s, a viscosity (313.15 K, 100 kPa, x1 = 0.8918) of 2.09 ± 0.42 mPa·s and a viscosity (313.15 K, 100 kPa, x1 = 0.9498) of 1.68 ± 0.34 mPa·s. The viscosity (323.15 K, 100 kPa, x1 = 0.094) was 9.4 ± 1.9 mPa·s, the viscosity (323.15 K, 100 kPa, x1 = 0.4003) was 6.3 ± 1.3 mPa·s and the viscosity (323.15 K, 100 kPa, x1 = 0.4989) was 4.73 ± 0.95 mPa·s. For the same compound, the viscosity (333.15 K, 100 kPa, x1 = 0.0416) was 9.1 ± 1.8 mPa·s, the viscosity (333.15 K, 100 kPa, x1 = 0.094) was 7.5 ± 1.5 mPa·s and the viscosity (333.15 K, 100 kPa, x1 = 0.4003) was 5 ± 1 mPa·s. For the same compound, the viscosity (333.15 K, 100 kPa, x1 = 0.8918) was 1.52 ± 0.3 mPa·s, the viscosity (333.15 K, 100 kPa, x1 = 0.9498) was 1.23 ± 0.25 mPa·s and the viscosity (333.15 K, 100 kPa, x1 = 1) was 1.09 ± 0.22 mPa·s.

`CN(C)C=O` + CC[n+]1ccn(C)c1.F[B-](F)(F)F showed a viscosity (313.15 K, 101 kPa, x1 = 1) of 0.667 ± 0.009 mPa·s and a viscosity (333.15 K, 101 kPa, x1 = 1) of 0.541 ± 0.007 mPa·s.

Work on `CCCCn1cc[n+](CCOCCOCCOCCOCC[n+]2ccn(CCCC)c2)c1.O=S(=O)([N-]S(=O)(=O)C(F)(F)F)C(F)(F)F.O=S(=O)([N-]S(=O)(=O)C(F)(F)F)C(F)(F)F` + CC[n+]1ccn(C)c1.N#C[N-]C#N + O=S(=O)([N-]S(=O)(=O)C(F)(F)F)C(F)(F)F.[Li+] yielded an electrical conductivity (298 K, 100 kPa, x1 = 0.1333, x2 = 0.7621) of 0.835 ± 0.033 S/m, an electrical conductivity (303 K, 100 kPa, x1 = 0.1333, x2 = 0.7621) of 0.94 ± 0.038 S/m and an electrical conductivity (313 K, 100 kPa, x1 = 0.1333, x2 = 0.7621) of 1.17 ± 0.047 S/m. For the same compound, the electrical conductivity (323 K, 100 kPa, x1 = 0.1333, x2 = 0.7621) was 1.52 ± 0.061 S/m, the electrical conductivity (333 K, 100 kPa, x1 = 0.1333, x2 = 0.7621) was 1.8 ± 0.072 S/m and the electrical conductivity (343 K, 100 kPa, x1 = 0.1333, x2 = 0.7621) was 2.06 ± 0.082 S/m.

For `CCCCn1cc[n+](CCOCC[n+]2ccn(CCCC)c2)c1.O=S(=O)([N-]S(=O)(=O)C(F)(F)F)C(F)(F)F.O=S(=O)([N-]S(=O)(=O)C(F)(F)F)C(F)(F)F` + CC[n+]1ccn(C)c1.N#C[N-]C#N + O=S(=O)([N-]S(=O)(=O)C(F)(F)F)C(F)(F)F.[Li+], the electrical conductivity (298 K, 100 kPa, x1 = 0.1503, x2 = 0.7472) was 0.512 ± 0.02 S/m, the electrical conductivity (303 K, 100 kPa, x1 = 0.1503, x2 = 0.7472) was 0.654 ± 0.026 S/m and the electrical conductivity (313 K, 100 kPa, x1 = 0.1503, x2 = 0.7472) was 0.829 ± 0.033 S/m. For the same compound, the electrical conductivity (323 K, 100 kPa, x1 = 0.1503, x2 = 0.7472) was 1.11 ± 0.044 S/m, the electrical conductivity (333 K, 100 kPa, x1 = 0.1503, x2 = 0.7472) was 1.45 ± 0.058 S/m and the electrical conductivity (343 K, 100 kPa, x1 = 0.1503, x2 = 0.7472) was 1.84 ± 0.074 S/m.

In the case of `C[N+]1(CCOCCOCCOCCOCC[N+]2(C)CCCC2)CCCC1.O=S(=O)([N-]S(=O)(=O)C(F)(F)F)C(F)(F)F.O=S(=O)([N-]S(=O)(=O)C(F)(F)F)C(F)(F)F` + CC[n+]1ccn(C)c1.N#C[N-]C#N + O=S(=O)([N-]S(=O)(=O)C(F)(F)F)C(F)(F)F.[Li+], the electrical conductivity (298 K, 100 kPa, x1 = 0.1429, x2 = 0.7537) is reported as 0.47 ± 0.019 S/m, the electrical conductivity (303 K, 100 kPa, x1 = 0.1429, x2 = 0.7537) is reported as 0.56 ± 0.022 S/m and the electrical conductivity (313 K, 100 kPa, x1 = 0.1429, x2 = 0.7537) is reported as 0.77 ± 0.031 S/m. The electrical conductivity (323 K, 100 kPa, x1 = 0.1429, x2 = 0.7537) was 1.08 ± 0.043 S/m, the electrical conductivity (333 K, 100 kPa, x1 = 0.1429, x2 = 0.7537) was 1.34 ± 0.053 S/m and the electrical conductivity (343 K, 100 kPa, x1 = 0.1429, x2 = 0.7537) was 1.63 ± 0.065 S/m.

With `CCOC(C)=O` + CC[n+]1ccn(C)c1.O=S(=O)([N-]S(=O)(=O)C(F)(F)F)C(F)(F)F the viscosity (303.15 K, 100 kPa, x1 = 1) was 0.39 mPa·s.

Work on `CN(C)C=O` + CC[n+]1ccn(C)c1.O=S(=O)([O-])C(F)(F)F yielded a viscosity (298.15 K, 100 kPa, x1 = 1) of 0.81 mPa·s.

Work on `CN(C)C=O` + CC[n+]1ccn(C)c1.[Cl-] yielded a viscosity (288.15 K, 101 kPa, x1 = 1) of 0.94 ± 0.11 mPa·s.
